Reference: article doi:10.1101/2020.06.11.145995v1 (biorxiv, 2020)
Like-named read-outs stand apart in the source and are kept apart here. Each block holds one compound with its values, some of them ahead of it.

What was measured:
Experiment in all cases: biochemical
AKT2 = AKT2 (Homo sapiens, UniProt P31751)
AMPK-alpha2 = AMPK-alpha2 (Homo sapiens, UniProt P54646)
BMPR2 = BMPR2 (Homo sapiens, UniProt Q13873)
CAMK1G = CAMK1G (Homo sapiens, UniProt Q96NX5)
CSNK1A1 = CSNK1A1 (Homo sapiens, UniProt P48729)
Chain of CSNK1A1 (P48729 whole entry): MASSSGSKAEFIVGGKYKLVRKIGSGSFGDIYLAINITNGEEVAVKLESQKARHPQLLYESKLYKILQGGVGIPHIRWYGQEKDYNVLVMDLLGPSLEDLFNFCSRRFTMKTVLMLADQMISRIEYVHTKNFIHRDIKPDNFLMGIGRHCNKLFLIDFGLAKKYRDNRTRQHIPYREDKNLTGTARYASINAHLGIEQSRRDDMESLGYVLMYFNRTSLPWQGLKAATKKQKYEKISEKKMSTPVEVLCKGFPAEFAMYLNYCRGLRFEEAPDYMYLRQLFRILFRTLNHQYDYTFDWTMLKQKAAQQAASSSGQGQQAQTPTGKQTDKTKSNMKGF

CSNK1A1L = CSNK1A1L (Homo sapiens, UniProt Q8N752)
DRAK2 = DRAK2 (Homo sapiens, UniProt O94768)
EGFR = EGFR (Homo sapiens, UniProt P00533)
Chain of EGFR (P00533 whole entry): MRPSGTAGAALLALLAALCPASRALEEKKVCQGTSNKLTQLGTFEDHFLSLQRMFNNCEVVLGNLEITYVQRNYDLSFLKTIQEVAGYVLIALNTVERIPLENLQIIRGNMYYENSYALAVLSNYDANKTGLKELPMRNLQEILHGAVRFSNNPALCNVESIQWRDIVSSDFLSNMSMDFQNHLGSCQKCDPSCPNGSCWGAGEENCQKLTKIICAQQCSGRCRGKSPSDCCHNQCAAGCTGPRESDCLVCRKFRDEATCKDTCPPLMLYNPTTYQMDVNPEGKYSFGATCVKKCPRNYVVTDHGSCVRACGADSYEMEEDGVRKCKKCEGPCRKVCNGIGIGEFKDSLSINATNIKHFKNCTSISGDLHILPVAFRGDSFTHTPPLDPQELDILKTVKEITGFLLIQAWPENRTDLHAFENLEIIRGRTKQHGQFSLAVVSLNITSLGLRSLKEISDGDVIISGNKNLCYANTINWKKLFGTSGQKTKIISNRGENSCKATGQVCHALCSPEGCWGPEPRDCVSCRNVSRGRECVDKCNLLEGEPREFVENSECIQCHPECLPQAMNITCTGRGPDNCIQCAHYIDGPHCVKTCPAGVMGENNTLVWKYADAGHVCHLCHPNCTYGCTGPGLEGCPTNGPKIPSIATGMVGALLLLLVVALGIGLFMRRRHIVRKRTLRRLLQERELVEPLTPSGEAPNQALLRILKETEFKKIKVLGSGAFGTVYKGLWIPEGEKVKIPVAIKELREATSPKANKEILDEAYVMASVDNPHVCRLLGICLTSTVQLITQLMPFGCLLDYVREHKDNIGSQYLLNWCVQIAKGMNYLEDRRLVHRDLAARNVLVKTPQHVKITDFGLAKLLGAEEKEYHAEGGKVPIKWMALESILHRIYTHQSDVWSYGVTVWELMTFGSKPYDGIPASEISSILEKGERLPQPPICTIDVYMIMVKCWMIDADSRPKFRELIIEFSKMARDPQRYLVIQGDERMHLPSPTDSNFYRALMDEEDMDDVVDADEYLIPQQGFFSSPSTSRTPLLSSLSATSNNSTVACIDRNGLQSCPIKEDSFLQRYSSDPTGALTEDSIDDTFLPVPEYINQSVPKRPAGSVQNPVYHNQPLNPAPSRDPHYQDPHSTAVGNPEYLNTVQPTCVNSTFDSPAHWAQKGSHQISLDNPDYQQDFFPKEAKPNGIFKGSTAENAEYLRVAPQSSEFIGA

EGFR(G719S) = EGFR(G719S) (Homo sapiens, UniProt P00533, G719S)
EGFR(L858R) = EGFR(L858R) (Homo sapiens, UniProt P00533, L858R)
FLT3(D835Y) = FLT3(D835Y) (Homo sapiens, UniProt P36888, D835Y)
FLT3(K663Q) = FLT3(K663Q) (Homo sapiens, UniProt P36888, K663Q)
FRK = FRK (Homo sapiens, UniProt P42685)
Chain of FRK (P42685 whole entry): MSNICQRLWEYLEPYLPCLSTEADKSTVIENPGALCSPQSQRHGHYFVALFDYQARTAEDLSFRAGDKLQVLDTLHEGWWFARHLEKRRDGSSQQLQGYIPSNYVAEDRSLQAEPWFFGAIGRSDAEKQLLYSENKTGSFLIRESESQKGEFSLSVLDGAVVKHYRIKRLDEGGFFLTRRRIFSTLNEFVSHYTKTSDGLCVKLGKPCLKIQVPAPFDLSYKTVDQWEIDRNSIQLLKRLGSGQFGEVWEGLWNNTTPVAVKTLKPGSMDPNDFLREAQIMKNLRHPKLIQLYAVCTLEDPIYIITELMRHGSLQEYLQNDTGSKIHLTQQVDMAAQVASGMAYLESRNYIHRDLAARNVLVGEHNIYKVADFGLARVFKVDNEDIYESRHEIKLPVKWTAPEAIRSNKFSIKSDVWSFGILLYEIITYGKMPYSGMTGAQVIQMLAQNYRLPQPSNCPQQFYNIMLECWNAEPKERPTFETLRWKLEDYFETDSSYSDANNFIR

GRK4 = GRK4 (Homo sapiens, UniProt P32298)
HIPK4 = HIPK4 (Homo sapiens, UniProt Q8NE63)
KIT(V559D) = KIT(V559D) (Homo sapiens, UniProt P10721, V559D)
Chain of KIT(V559D) (P10721 whole entry V559D): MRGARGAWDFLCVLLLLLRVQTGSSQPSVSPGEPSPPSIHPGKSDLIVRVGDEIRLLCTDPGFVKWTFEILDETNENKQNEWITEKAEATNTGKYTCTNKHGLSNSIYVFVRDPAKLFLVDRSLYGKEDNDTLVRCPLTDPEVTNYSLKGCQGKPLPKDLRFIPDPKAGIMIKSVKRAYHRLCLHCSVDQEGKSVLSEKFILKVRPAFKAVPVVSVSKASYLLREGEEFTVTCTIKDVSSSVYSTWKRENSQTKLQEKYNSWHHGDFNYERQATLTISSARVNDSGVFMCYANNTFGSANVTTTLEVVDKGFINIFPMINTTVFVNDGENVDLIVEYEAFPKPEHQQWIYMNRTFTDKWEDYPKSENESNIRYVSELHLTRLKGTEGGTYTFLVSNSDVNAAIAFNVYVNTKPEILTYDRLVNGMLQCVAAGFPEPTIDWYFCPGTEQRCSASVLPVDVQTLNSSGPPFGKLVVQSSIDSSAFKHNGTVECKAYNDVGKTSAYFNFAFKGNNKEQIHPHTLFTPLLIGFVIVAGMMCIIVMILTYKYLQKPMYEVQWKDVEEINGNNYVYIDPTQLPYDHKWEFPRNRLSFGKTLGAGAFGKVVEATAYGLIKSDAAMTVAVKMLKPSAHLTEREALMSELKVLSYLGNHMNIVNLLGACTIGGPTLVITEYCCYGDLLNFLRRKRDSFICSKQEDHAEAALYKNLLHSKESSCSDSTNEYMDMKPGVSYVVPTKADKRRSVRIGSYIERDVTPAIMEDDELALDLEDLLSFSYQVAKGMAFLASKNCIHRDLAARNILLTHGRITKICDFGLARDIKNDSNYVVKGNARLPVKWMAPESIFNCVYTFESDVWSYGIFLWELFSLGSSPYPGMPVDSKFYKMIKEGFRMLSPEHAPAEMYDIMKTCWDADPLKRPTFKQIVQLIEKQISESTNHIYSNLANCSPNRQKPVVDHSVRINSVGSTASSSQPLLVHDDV

LIMK1 = LIMK1 (Homo sapiens, UniProt P53667)
LRRK2 = LRRK2 (Homo sapiens, UniProt Q5S007)
LZK = LZK (Homo sapiens, UniProt O43283)
MAK = MAK (Homo sapiens, UniProt P20794)
MAP4K2 = MAP4K2 (Homo sapiens, UniProt Q12851)
MAP4K3 = MAP4K3 (Homo sapiens, UniProt Q8IVH8)
MAP4K5 = MAP4K5 (Homo sapiens, UniProt Q9Y4K4)
Chain of MAP4K5 (Q9Y4K4 whole entry): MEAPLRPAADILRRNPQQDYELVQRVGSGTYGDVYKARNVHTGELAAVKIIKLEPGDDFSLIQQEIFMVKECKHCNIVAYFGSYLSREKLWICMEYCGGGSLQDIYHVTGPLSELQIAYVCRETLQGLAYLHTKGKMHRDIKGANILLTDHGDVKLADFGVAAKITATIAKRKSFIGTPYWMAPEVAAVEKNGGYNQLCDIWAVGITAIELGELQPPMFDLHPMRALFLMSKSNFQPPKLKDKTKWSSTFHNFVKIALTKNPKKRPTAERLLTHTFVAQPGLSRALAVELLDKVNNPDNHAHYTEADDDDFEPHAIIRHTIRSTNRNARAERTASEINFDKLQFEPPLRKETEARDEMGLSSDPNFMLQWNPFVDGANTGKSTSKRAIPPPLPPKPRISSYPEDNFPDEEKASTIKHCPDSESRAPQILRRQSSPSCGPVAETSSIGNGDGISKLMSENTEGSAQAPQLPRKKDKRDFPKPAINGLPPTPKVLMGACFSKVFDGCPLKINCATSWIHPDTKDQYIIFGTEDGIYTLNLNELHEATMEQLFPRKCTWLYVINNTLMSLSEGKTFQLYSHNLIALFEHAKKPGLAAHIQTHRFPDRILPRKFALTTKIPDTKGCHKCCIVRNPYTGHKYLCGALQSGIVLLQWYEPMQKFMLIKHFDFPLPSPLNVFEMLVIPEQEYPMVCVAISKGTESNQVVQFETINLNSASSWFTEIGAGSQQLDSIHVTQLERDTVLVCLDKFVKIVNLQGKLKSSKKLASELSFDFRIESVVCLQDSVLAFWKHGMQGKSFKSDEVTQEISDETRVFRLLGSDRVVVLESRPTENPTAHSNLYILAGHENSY

MARK2 = MARK2 (Homo sapiens, UniProt Q7KZI7)
MEK6 = MEK6 (Homo sapiens, UniProt P52564)
MRCKA = MRCKA (Homo sapiens, UniProt Q5VT25)
MST2 = MST2 (Homo sapiens, UniProt Q13188)
MST3 = MST3 (Homo sapiens, UniProt Q9Y6E0)
NUAK1 = NUAK1 (Homo sapiens, UniProt O60285)
Chain of NUAK1 (O60285 whole entry): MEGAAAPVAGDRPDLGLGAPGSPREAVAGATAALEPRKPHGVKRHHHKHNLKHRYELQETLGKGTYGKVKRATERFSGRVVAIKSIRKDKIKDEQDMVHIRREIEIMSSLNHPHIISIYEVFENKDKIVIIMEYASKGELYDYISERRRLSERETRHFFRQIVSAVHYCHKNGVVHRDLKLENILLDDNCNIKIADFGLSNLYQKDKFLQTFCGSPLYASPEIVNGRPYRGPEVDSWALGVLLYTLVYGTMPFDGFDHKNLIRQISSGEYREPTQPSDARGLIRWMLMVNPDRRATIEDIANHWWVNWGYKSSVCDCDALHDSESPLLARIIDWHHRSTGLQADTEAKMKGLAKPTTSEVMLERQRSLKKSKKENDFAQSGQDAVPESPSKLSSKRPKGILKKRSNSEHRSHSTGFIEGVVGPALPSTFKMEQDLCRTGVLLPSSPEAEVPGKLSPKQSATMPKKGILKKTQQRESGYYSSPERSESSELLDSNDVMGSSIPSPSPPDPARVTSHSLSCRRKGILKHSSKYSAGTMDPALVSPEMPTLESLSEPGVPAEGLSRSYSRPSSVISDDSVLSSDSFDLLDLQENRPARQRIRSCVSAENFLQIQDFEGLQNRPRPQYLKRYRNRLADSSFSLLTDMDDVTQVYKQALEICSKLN

[1] = read-out: CPT-1-70-1 (1uM) % control
[2] = read-out: HYJ-2-002-1 (1uM) % control

Chain of AKT2 (P31751 whole entry): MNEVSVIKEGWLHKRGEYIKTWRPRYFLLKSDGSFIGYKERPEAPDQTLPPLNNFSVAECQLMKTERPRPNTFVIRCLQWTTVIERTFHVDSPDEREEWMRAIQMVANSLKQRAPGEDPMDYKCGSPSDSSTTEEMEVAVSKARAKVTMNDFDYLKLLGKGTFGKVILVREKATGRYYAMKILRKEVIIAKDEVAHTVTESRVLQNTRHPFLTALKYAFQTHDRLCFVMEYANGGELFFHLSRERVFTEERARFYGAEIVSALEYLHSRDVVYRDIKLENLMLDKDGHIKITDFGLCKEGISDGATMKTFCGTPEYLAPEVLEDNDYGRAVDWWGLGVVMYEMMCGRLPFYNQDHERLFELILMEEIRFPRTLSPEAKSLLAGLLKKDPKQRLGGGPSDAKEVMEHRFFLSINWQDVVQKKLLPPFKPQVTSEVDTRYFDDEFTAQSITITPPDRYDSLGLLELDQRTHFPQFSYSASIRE

SMILES: CN1CCN(c2ccc(Nc3nc(Oc4ccc(NC(=O)CCl)cc4)c4cc[nH]c4n3)cc2)CC1 [CPT1-70-1]
remaining activity at 1 µM (AKT2; [1]): 100%
remaining activity at 1 µM (AMPK-alpha2; [1]): 41%
remaining activity at 1 µM (BMPR2; [1]): 100%
remaining activity at 1 µM (CAMK1G; [1]): 50%
remaining activity at 1 µM (CSNK1A1; [1]): 55%
remaining activity at 1 µM (CSNK1A1L; [1]): 80%
remaining activity at 1 µM (DRAK2; [1]): 90%
remaining activity at 1 µM (EGFR; [1]): 63%
remaining activity at 1 µM (EGFR(G719S); [1]): 34%
remaining activity at 1 µM (EGFR(L858R); [1]): 22%
remaining activity at 1 µM (FLT3(D835Y); [1]): 0.35%
remaining activity at 1 µM (FLT3(K663Q); [1]): 2.4%
remaining activity at 1 µM (FRK; [1]): 100%
remaining activity at 1 µM (GRK4; [1]): 100%
remaining activity at 1 µM (HIPK4; [1]): 74%
remaining activity at 1 µM (KIT(V559D); [1]): 15%
remaining activity at 1 µM (LIMK1; [1]): 90%
remaining activity at 1 µM (LRRK2; [1]): 7.5%
remaining activity at 1 µM (LZK; [1]): 73%
remaining activity at 1 µM (MAK; [1]): 100%
remaining activity at 1 µM (MAP4K2; [1]): 25%
remaining activity at 1 µM (MAP4K3; [1]): 23%
remaining activity at 1 µM (MAP4K5; [1]): 25%
remaining activity at 1 µM (MARK2; [1]): 10%
remaining activity at 1 µM (MEK6; [1]): 55%
remaining activity at 1 µM (MRCKA; [1]): 100%
remaining activity at 1 µM (MST2; [1]): 86%
remaining activity at 1 µM (MST3; [1]): 93%
remaining activity at 1 µM (NUAK1; [1]): 9.3%

remaining activity at 1 µM (AKT2; [2]): 95%
remaining activity at 1 µM (AMPK-alpha2; [2]): 100%
remaining activity at 1 µM (BMPR2; [2]): 98%
remaining activity at 1 µM (CAMK1G; [2]): 94%
remaining activity at 1 µM (CSNK1A1; [2]): 100%
remaining activity at 1 µM (CSNK1A1L; [2]): 100%
remaining activity at 1 µM (DRAK2; [2]): 57%
remaining activity at 1 µM (EGFR; [2]): 5%
remaining activity at 1 µM (EGFR(G719S); [2]): 1.8%
remaining activity at 1 µM (EGFR(L858R); [2]): 3.2%
remaining activity at 1 µM (FLT3(D835Y); [2]): 38%
remaining activity at 1 µM (FLT3(K663Q); [2]): 1.6%
remaining activity at 1 µM (FRK; [2]): 1.4%
remaining activity at 1 µM (GRK4; [2]): 100%
remaining activity at 1 µM (HIPK4; [2]): 2.6%
remaining activity at 1 µM (KIT(V559D); [2]): 0%
remaining activity at 1 µM (LIMK1; [2]): 26%
remaining activity at 1 µM (LRRK2; [2]): 94%
remaining activity at 1 µM (LZK; [2]): 78%
remaining activity at 1 µM (MAK; [2]): 100%
remaining activity at 1 µM (MAP4K2; [2]): 4.6%
remaining activity at 1 µM (MAP4K3; [2]): 40%
remaining activity at 1 µM (MAP4K5; [2]): 16%
remaining activity at 1 µM (MARK2; [2]): 64%
remaining activity at 1 µM (MEK6; [2]): 91%
remaining activity at 1 µM (MRCKA; [2]): 100%
remaining activity at 1 µM (MST2; [2]): 83%
remaining activity at 1 µM (MST3; [2]): 76%
remaining activity at 1 µM (NUAK1; [2]): 65%
SMILES: CCN1CCN(Cc2ccc(NC(=O)c3ccc(C)c(CCc4cnc5[nH]ccc5c4OC)c3)cc2C(F)(F)F)CC1 [HYJ-2-002-1]
